Test [1] has as its target T1, HER2 wildtype (WT) protein (Homo sapiens, UniProt P04626).
T1 construct: BT474 and N87 cell lines which endogenously overexpress the HER2 wildtype (WT) protein; endogenous in cells; host or cells: BT474, N87
Description: HER2 signaling (pHER2 Tyr1248/total HER2 MSD) in BT474 cells. It is filed as cell-based. The settings on record: 1.5 hr compound, 1% FBS. The procedure, abridged: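 BT474, N87 (HER2 WT) and NCI-H1781 (HER2 G776delinsVC) cells were treated for 1.5 h at 37° C in 1% FBS medium with compound at 0.0005–1.1 μM. pHER2 Tyr1248 was measured by MSD on whole-cell lysates and normalized to total HER2 as % DMSO. EC50 came from a variable-slope sigmoidal fit.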

A further test has as its target EGFR (Homo sapiens, UniProt P00533). Description: EGFR signaling (pEGFR Tyr1068/total EGFR MSD) in A431 cells. Details: endogenous in cells; host or cells: A431, N87. The settings on record: for EC50: A431 cells, read-out: A431 pEGFR EC50; for Selectivity A431 EC50/BT474 EC50: ratio A431 pEGFR EC50 to BT474 pHER2 EC50; for Selectivity A431 EC50/HEKYVMA EC50: ratio A431 pEGFR EC50 to HEK YVMA pHER2 EC50. Format: cell-based. The procedure, abridged: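 Serum-starved A431 cells were pretreated 1.5 h in 1% FBS with compound (0.005–10 μM, 0.1% DMSO), then stimulated with 100 ng/mL human EGF for 10 min. Lysate pEGFR Tyr1068 was measured by MSD and normalized to total EGFR as % DMSO control; EC50 from variable-slope sigmoidal fit.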

A word on the EC50: it is the concentration giving half of the maximal effect.

EGFR, sequence (P00533 25-1210): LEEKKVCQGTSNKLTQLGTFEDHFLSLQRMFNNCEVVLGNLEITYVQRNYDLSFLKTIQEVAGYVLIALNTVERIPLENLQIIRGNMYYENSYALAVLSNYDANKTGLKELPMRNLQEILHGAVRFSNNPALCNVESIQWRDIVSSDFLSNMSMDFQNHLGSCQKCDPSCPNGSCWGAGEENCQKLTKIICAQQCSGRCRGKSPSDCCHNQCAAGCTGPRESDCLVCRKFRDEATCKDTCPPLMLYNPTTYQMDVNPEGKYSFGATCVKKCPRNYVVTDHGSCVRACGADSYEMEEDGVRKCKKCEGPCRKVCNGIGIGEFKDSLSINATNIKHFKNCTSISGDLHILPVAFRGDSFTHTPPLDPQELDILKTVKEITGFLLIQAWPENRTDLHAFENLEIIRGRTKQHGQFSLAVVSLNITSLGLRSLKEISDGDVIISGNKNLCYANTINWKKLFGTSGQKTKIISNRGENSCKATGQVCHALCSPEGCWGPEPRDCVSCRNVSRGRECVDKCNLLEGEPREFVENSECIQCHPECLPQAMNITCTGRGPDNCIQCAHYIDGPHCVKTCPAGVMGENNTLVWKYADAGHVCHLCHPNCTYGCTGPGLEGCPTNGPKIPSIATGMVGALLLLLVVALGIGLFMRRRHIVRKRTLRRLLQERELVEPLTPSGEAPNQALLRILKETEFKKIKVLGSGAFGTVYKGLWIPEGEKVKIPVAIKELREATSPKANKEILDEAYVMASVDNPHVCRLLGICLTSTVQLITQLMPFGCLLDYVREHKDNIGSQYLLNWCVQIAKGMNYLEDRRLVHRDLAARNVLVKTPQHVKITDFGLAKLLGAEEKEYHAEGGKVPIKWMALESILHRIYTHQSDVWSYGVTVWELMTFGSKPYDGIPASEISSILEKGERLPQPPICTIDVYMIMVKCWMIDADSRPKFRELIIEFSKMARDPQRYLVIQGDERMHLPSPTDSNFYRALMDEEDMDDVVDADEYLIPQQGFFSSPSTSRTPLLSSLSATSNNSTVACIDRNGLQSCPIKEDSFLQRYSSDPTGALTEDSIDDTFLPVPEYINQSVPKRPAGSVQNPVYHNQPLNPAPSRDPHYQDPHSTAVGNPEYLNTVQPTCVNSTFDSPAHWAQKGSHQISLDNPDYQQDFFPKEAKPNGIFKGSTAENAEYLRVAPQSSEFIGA
T1 sequence (P04626 23-1255): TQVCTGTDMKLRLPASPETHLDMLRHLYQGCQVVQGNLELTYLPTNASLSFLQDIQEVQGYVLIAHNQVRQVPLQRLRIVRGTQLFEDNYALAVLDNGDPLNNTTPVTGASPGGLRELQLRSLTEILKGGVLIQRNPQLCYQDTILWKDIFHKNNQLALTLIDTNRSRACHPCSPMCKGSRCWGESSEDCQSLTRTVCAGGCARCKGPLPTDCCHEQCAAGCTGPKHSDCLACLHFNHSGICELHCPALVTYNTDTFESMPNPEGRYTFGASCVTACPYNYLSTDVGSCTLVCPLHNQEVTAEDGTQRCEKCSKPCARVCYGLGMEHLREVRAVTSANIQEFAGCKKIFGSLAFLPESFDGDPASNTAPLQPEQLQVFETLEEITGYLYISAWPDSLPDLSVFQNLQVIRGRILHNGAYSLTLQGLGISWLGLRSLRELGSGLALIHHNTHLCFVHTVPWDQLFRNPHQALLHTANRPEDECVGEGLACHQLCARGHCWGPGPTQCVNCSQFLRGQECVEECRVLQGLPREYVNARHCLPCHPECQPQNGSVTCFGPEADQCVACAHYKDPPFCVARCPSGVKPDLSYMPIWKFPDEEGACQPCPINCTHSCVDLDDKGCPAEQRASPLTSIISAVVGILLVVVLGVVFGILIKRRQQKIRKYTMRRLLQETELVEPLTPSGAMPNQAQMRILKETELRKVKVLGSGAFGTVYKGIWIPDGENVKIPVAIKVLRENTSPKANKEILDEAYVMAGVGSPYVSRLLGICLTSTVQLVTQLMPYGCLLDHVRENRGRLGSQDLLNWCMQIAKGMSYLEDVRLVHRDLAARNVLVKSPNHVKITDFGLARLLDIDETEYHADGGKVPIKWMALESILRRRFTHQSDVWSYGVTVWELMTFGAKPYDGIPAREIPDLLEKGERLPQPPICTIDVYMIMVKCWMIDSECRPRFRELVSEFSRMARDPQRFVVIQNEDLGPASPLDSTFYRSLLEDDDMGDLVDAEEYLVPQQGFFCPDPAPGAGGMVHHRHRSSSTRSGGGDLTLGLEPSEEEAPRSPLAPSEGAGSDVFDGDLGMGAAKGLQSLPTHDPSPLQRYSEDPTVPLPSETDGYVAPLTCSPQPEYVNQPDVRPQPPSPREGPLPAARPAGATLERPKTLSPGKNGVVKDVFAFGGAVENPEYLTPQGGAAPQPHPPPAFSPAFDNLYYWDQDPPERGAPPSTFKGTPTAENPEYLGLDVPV

In the case of `Cc1ccc(Oc2ccc(Nc3ncnc4sc5c(c34)CCN(C(=O)/C=C/CN3CC4CC(C3)O4)C5)cc2C)cn1` [Compound 15], the 50% effective concentration (EC50) in test [1] is < 100 nM. For the same compound, on EGFR, the EC50 lay within 100 to 1000 nM; the “Selectivity A431 EC50/BT474 EC50” value is “B (B: ≥ 20 and < 100)”; the “Selectivity A431 EC50/HEKYVMA EC50” value was “B (B: ≥ 20 and < 100)”.
Turning to `C=CC(=O)N1CCc2c(sc3ncnc(Nc4ccc(Oc5cccnc5)c(Cl)c4)c23)C1` [Compound 6, 1-(4-((3-chloro-4-(pyridin-3-yloxy)phenyl)amino)-5,8-dihydropyrido[4′,3′:4,5]thieno[2,3-d]pyrimidin-7(6H)-yl)prop-2-en-1-one], in test [1], the EC50 was < 100 nM. Also, at EGFR, the 50% effective concentration (EC50) was < 100 nM; the “Selectivity A431 EC50/BT474 EC50” value was “E (E: >1 and < 5)”; the “Selectivity A431 EC50/HEKYVMA EC50” value is “E (E: >1 and < 5)”.
Turning to `Cc1ccc(Oc2ccc(Nc3ncnc4sc5c(c34)CC(C)N(C(=O)C=CCN(C)C)C5C)cc2C)cn1` (single isomer, unassigned) [Compound 161], in test [1], the concentration giving a half-maximal response (EC50) was < 100 nM. For the same compound, at EGFR, the EC50 is < 100 nM; the “Selectivity A431 EC50/BT474 EC50” value was “D (D: ≥ 5 and < 10)”; the “Selectivity A431 EC50/HEKYVMA EC50” value was “E (E: >1 and < 5)”.
As to `Cc1ccc(Oc2ccc(Nc3ncnc4sc5c(c34)CCN(C(=O)/C=C/CN3CCCC34CCC4)C5)cc2C)cn1` [Compound 115], the half-maximal effective concentration (EC50) in test [1] was < 100 nM. At EGFR, the EC50 is 100 to 1000 nM; the “Selectivity A431 EC50/BT474 EC50” value was “C (C: ≥ 10 and < 20)”; the “Selectivity A431 EC50/HEKYVMA EC50” value is “D (D: ≥ 5 and < 10)”.
`Cc1ccc(Oc2ccc(Nc3ncnc4sc5c(c34)CCN(C(=O)/C=C/CN3CC4CC4(CO)C3)C5)cc2C)cn1` (stereo not drawn) [Compound 118]: the 50% effective concentration (EC50) in test [1] was < 100 nM. Besides, on EGFR, the concentration for a half-maximal effect (EC50) was in the range of 100 to 1000 nM; the “Selectivity A431 EC50/BT474 EC50” value is given as “A (A: ≥100)”; the “Selectivity A431 EC50/HEKYVMA EC50” value was “B (B: ≥ 20 and < 100)”.
For `Cc1ccc(Oc2ccc(Nc3ncnc4sc5c(c34)CCN(C(=O)/C=C/CN3CC4CCC3C4)C5)cc2C)cn1` (stereo not drawn) [Compound 14], the EC50 in test [1] is < 100 nM. In addition, at EGFR, the EC50 is < 100 nM; the “Selectivity A431 EC50/BT474 EC50” value was “D (D: ≥ 5 and < 10)”; the “Selectivity A431 EC50/HEKYVMA EC50” value was “E (E: >1 and < 5)”.
For the compound `Cc1ccc(Oc2ccc(Nc3ncnc4sc5c(c34)C(C)CN(C(=O)C=CCN3CCOCC3)C5)cc2C)cn1` (single isomer, unassigned) [Compound 177], the concentration for a half-maximal effect (EC50) in test [1] was < 100 nM. Also, at EGFR, the half-maximal effective concentration (EC50) was in the range of 100 to 1000 nM; the “Selectivity A431 EC50/BT474 EC50” value is “C (C: ≥ 10 and < 20)”; the “Selectivity A431 EC50/HEKYVMA EC50” value is “D (D: ≥ 5 and < 10)”.
For the compound `C=CC(=O)N1Cc2sc3ncnc(Nc4ccc(Oc5ccc(C)nc5)c(C)c4)c3c2C(C)C1` (single isomer, unassigned) [Compound 145], in test [1], the half-maximal effective concentration (EC50) is < 100 nM. Also, at EGFR, the concentration giving a half-maximal response (EC50) lay in the range of 100 to 1000 nM; the “Selectivity A431 EC50/BT474 EC50” value was “C (C: ≥ 10 and < 20)”; the “Selectivity A431 EC50/HEKYVMA EC50” value was “E (E: >1 and < 5)”.
With `Cc1ccc(Oc2ccc(Nc3ncnc4sc5c(c34)CCN(C(=O)/C=C/CN3CCCC(F)(CO)C3)C5)cc2C)cn1` (stereo not drawn) [Compound 150], the half-maximal effective concentration (EC50) in test [1] was < 100 nM. On EGFR, the EC50 is 100 to 1000 nM; the “Selectivity A431 EC50/BT474 EC50” value is “B (B: ≥ 20 and < 100)”; the “Selectivity A431 EC50/HEKYVMA EC50” value is “E (E: >1 and < 5)”.
Regarding `Cc1ccc(Oc2ccc(Nc3ncnc4sc5c(c34)C[C@@H](C)N(C(=O)/C=C/CN(C)C)[C@H]5C)cc2C)cn1` (racemic) [Compound 149, (E)-1-(6,8-cis-dimethyl-4-((3-methyl-4-((6-methylpyridin-3-yl)oxy)phenyl)amino)-5,8-dihydropyrido[4′,3′:4,5]thieno[2,3-d]pyrimidin-7(6H)-yl)-4-(dimethylamino)but-2-en-1-one], the EC50 in test [1] is < 100 nM. For the same compound, on EGFR, the EC50 fell in the range of 100 to 1000 nM; the “Selectivity A431 EC50/BT474 EC50” value is “B (B: ≥ 20 and < 100)”; the “Selectivity A431 EC50/HEKYVMA EC50” value is “D (D: ≥ 5 and < 10)”.
As to `Cc1ccc(Oc2ccc(Nc3ncnc4sc5c(c34)CCN(C(=O)/C=C/CN3CC(C)OC(C)C3C)C5)cc2C)cn1` (stereo not drawn) [Compound 117], the 50% effective concentration (EC50) in test [1] is < 100 nM. In addition, at EGFR, the EC50 fell in the range of 100 to 1000 nM; the “Selectivity A431 EC50/BT474 EC50” value was “B (B: ≥ 20 and < 100)”; the “Selectivity A431 EC50/HEKYVMA EC50” value was “B (B: ≥ 20 and < 100)”.
For the compound `CC[C@H](NC/C=C/C(=O)N1CCc2c(sc3ncnc(Nc4ccc(Oc5ccc(C)nc5)c(C)c4)c23)C1)C(F)(F)F` [Compound 122], the EC50 in test [1] is < 100 nM. Further, on EGFR, the concentration giving a half-maximal response (EC50) was 100 to 1000 nM; the “Selectivity A431 EC50/BT474 EC50” value was “B (B: ≥ 20 and < 100)”; the “Selectivity A431 EC50/HEKYVMA EC50” value was “B (B: ≥ 20 and < 100)”.
For `Cc1ccc(Oc2ccc(Nc3ncnc4sc5c(c34)CCN(C(=O)/C=C/CN3C[C@H]4C[C@@H]3CC4C#N)C5)cc2C)cn1` (stereo partly drawn) [Compound 120], the half-maximal effective concentration (EC50) in test [1] was < 100 nM. Moreover, on EGFR, the EC50 was in the range of 100 to 1000 nM; the “Selectivity A431 EC50/BT474 EC50” value is “B (B: ≥ 20 and < 100)”; the “Selectivity A431 EC50/HEKYVMA EC50” value is “B (B: ≥ 20 and < 100)”.
Regarding `Cc1ccc(Oc2ccc(Nc3ncnc4sc5c(c34)CCN(C(=O)/C=C/CN3CCC[C@H](CO)C3)C5)cc2C)cn1` [Compound 155], in test [1], the concentration giving a half-maximal response (EC50) was < 100 nM. On EGFR, the half-maximal effective concentration (EC50) was < 100 nM; the “Selectivity A431 EC50/BT474 EC50” value was “B (B: ≥ 20 and < 100)”; the “Selectivity A431 EC50/HEKYVMA EC50” value was “E (E: >1 and < 5)”.
In test [1], `Cc1ccc(Oc2ccc(Nc3ncnc4sc5c(c34)C(C)N(C(=O)C=CCN(C)C)C5)cc2C)cn1` (single isomer, unassigned) [Compound 148] gave a concentration for a half-maximal effect (EC50) of 100 to 350 nM. Also, on EGFR, the half-maximal effective concentration (EC50) was > 10000 nM; the “Selectivity A431 EC50/BT474 EC50” value is “B (B: ≥ 20 and < 100)”; the “Selectivity A431 EC50/HEKYVMA EC50” value is “C (C: ≥ 10 and < 20)”.

These data come from patent US20240391931A1 (Bristol-Myers Squibb Company, priority 2021, published 2024).
